Experimental findings from article PMC5833004 (ACS Central Science, 2018) are described below.

What is called GI50 is the concentration at which growth is held to half of that of the control.

Entries after “also recorded” stand apart in the source; their conditions may differ. Bounds are passed on as bounds.

Assay [1] concerns the target GFP-fused multimerized CBP bromodomain (Homo sapiens, UniProt Q92793). Nature of the assay: FRAP assay in U2OS cells, GFP-fused CBP bromodomain. It counts as cell-based. The settings on record: compound 1 μM, 2.5 μM SAHA.
In a further assay the test system is Kasumi cells. Nature of the assay: Cell proliferation, resazurin assay. It counts as cell-based, human. The settings on record: 72 h or 144 h. (In general: Resazurin is reduced to fluorescent resorufin, in cell work by metabolically active cells.)
In the next assay the test system is LP1 cells. Nature of the assay: Cell proliferation, resazurin assay. In kind it is cell-based, human. Conditions: 72 h or 144 h.
Another assay relates to HL-60 cells. Nature of the assay: Cell proliferation, resazurin assay. It counts as cell-based. The settings on record: 144 h.
The target of a further assay is bromodomain of CBP (Homo sapiens, UniProt Q92793). The experiment in a line: Alpha Screen assay. It counts as binding.
Assay [2] has as its system MRC5 nontransformed fibroblast. The experiment in a line: Cell proliferation, resazurin assay. In kind it is cell-based. Conditions: Homo sapiens, MRC5, 72 h, read-out: GI50 MRC5.
A further assay relates to IRF4 mRNA. Nature of the assay: RT-qPCR mRNA transcription in LP1 cells. In kind it is cell-based, human. Conditions: 6 h incubation, dose-response. A general note: Quantitative PCR measures a nucleic acid by following its amplification.
A further assay relates to c-MYC mRNA. The experiment in a line: RT-qPCR mRNA transcription in LP1 cells. In kind it is cell-based, human. Conditions: 6 h incubation, dose-response.

Turning to `CCOc1ccc(C(C)=O)cc1-c1ccc(N2CCCS2(=O)=O)cc1C` [Compound 13], the “displacement of GFP-fused CBP bromodomain from chromatin (FRAP)” value (“displacement” below) in assay [1] is “significant displacement”.

As for `CCOc1ccc(C(C)=O)cc1NC(=O)c1cc(NC(C)=O)cc(NC(=O)c2ccc(OC)c(OC)c2)c1` [Compound 17], the “displacement” value in assay [1] is reported as “significant displacement”.

Take `CCOc1ccc(C(C)=O)cc1NC(=O)c1ccc(C)c(NC(=O)c2ccco2)c1` [Compound 7]: the “displacement” value in assay [1] was “significant displacement”.

Take `CCOc1ccc(C(C)=O)cc1NC(=O)c1cc(NC(C)=O)cc(NC(=O)c2ccco2)c1` [Compound 16]: in the assay on Kasumi cells, the “proliferation of Kasumi cells” value is on record as “selectively inhibited the proliferation”. For the same molecule, in the assay with LP1 cells, the “proliferation of LP1 cells” value is “selectively inhibited the proliferation”. The “displacement” value in assay [1] is “significant displacement; also recorded: strongest effect”. Further, the “proliferation of HL-60 cells” value in the assay on HL-60 cells is on record as “selectively inhibited the proliferation”. Moreover, at bromodomain of CBP, the “affinity for CBP bromodomain higher by a factor with respect to BRD4(1)” value was “more than 10,000”. The GI50 in assay [2] is greater than 20 µM. For the same molecule, the “IRF4 mRNA level” value in the assay with IRF4 mRNA is on record as “reduced”. For the same molecule, the “c-MYC mRNA level” value in the assay with c-MYC mRNA is reported as “reduced”.

For `CCOc1ccc(C(C)=O)cc1NC(=O)Cc1csc(-c2ccc(OC)c(OC)c2)n1` [Compound 6], in assay [1], the “displacement” value is “significant displacement”.
